Measurements published in patent publication US8012466B2, “Immunogenic compositions for activating γδ T cells” (priority 2008, dated 2011).
“Also recorded” adds a separate entry of the source.

Experiments:
[1] = system: Vγ9/Vδ2; conditions: cited from earlier work
[2] = system: Vγ2Vδ2 T cells; assay: In vitro HMBPP response of rhesus monkey PBMC; format: cell-based; conditions: PBMC stimulated with 100 nM HMBPP
Description: FIG. 7. Characteristics of rhesus monkey Vγ2Vδ2 T cells. (A). Large in vitro HMBPP responses by Vγ2Vδ2 T cells from most rhesus monkeys. […] (B). Uniform memory subset distribution of rhesus monkey Vγ2Vδ2 T cells. PBMC from 22 monkeys were stained for Vδ2, […], and […]. Vδ2^+ cells were divided in 4 groups based on their expression of CD28 and CD27.
Memory subset distribution and HMBPP response of rhesus monkey Vγ2Vδ2 T cells—In preparation for in vivo immunization of rhesus monkey, we screened 33 monkeys for their ability to respond to HMBPP in vitro, γδ T cells levels, V gene expression, and memory subset distribution. […] Like human Vγ2Vδ2 T cells, monkey Vγ2Vδ2 T cells also could be divided into 4 subsets based on expression of CD28 and CD27 (TEarly=central memory=CD28^+27^+, TEarly CD27−=CD28^+27^−, TIntermediate=CD28^−27^+, and TLate CD45RA+=CD28^−27^−). However, unlike human donors, there were very few monkeys with a predominance of the TLate RA subset. Moreover, whereas Vγ2Vδ2 T cells constituted 73% of human adult γδ T cells, Vγ2Vδ2 T cells constituted only 29% of monkey γδ T cells consistent with our earlier study. […]

[3] = system: Vγ2Vδ2 T cells; assay: Immunization of rhesus monkeys with zoledronate and HMBPP plus sc IL-2; format: in vivo, rhesus monkey; conditions: for in vitro reactivity of PBMC to HMBPP after immunization: PBMC before and ~2 weeks after each immunization, cultured with HMBPP 9 days; for outcome of repeated immunization in vivo: zoledronate 0.06 mg/kg sc or iv twice, then HMBPP 70 mg/kg iv, sc IL-2
[4] = system: Vγ2Vδ2 TCR transfectant, DBS43; assay: IL-2 release by Vγ2Vδ2 TCR transfectant DBS43; format: cell-based; conditions: unpublished data

| SMILES | return of expansion to baseline ([1]; cynomolgus monkey, in vivo) [days] | expansion of Vγ9/Vδ2 ([1]; first and successive infusions) | monkeys with expansion to >40% [2] | in vitro reactivity of PBMC to HMBPP after immunization [3] | outcome of repeated immunization in vivo [3] | IL-2 release [4] |
| --- | --- | --- | --- | --- | --- | --- |
| CC(O)(CBr)CCOP(=O)(O)OP(=O)(O)O (centres unmarked) [BrHPP, bromohydrin pyrophosphate] | 10 to 15 | transiently expand; also recorded: less vigorous expansions |  |  |  |  |
| C/C(=C\COP(=O)(O)OP(=O)(O)O)CO [HMBPP, (E)-4-hydroxy-3-methyl-but-2-enyl pyrophosphate] |  |  | 32/33 | leads to loss of in vitro reactivity to HMBPP | leads to immune exhaustion | release IL-2 in response to HMBPP |
| O=P(O)(O)C(O)(Cn1ccnc1)P(=O)(O)O [zoledronate] |  |  |  | leads to loss of in vitro reactivity to HMBPP | loss of in vivo (FIG. 8) and in vitro proliferation by Vγ2Vδ2 T cells to antigenic stimulation; also recorded: leads to immune exhaustion |  |
